Experimental data taken from ChEMBL document CHEMBL4342418, “1,2,3-Triazole-containing hybrids as potential anticancer agents: Current developments, action mechanisms and structure-activity relationships” (Eur J Med Chem, 2019).

Legend:
WiDr = assay: Antiproliferative activity against human WiDr cells by MTT assay; assay type: functional, cell-based
HBL-100 = assay: Antiproliferative activity against human HBL100 cells by MTT assay; assay type: functional, cell-based
T47D = assay: Antiproliferative activity against human T47D cells by MTT assay; assay type: functional, cell-based
HeLa [1] = assay: Antiproliferative activity against human HeLa cells by MTT assay; assay type: functional, cell-based
SW1573 = assay: Antiproliferative activity against human SW1573 cells by MTT assay; assay type: functional, cell-based
A549 [2] = assay: cells; assay type: functional, cell-based; settings: Homo sapiens
Description: Antiproliferative activity against human A549 cells by MTT assay

IMR-32 = assay: Antiproliferative activity against human IMR32 cells assessed as reduction in cell viability after 48 hrs by SRB assay; assay type: functional; settings: IMR-32, 48 h
HepG2 [3] = assay: Antiproliferative activity against human HepG2 cells assessed as reduction in cell viability after 48 hrs by SRB assay; assay type: functional; settings: HepG2, 48 h
HeLa [4] = assay: Antiproliferative activity against human HeLa cells assessed as reduction in cell viability after 48 hrs by SRB assay; assay type: functional
MCF7 = assay: Antiproliferative activity against human MCF7 cells assessed as reduction in cell viability after 48 hrs by SRB assay; assay type: functional, cell-based; settings: MCF7, 48 h
HepG2 [5] = assay: Antiproliferative activity against human HepG2 cells by MTT assay; assay type: functional, cell-based
KB = assay: Antiproliferative activity against human KB cells by MTT assay; assay type: functional, cell-based
A-431 = assay: Antiproliferative activity against human A431 cells assessed as reduction in cell viability after 24 hrs by MTT assay; assay type: functional, cell-based; settings: A-431, 24 h
MDA-MB-231 = assay: Antiproliferative activity against human MDA-MB-231 cells assessed as reduction in cell viability after 24 hrs by MTT assay; assay type: functional, cell-based; settings: MDA-MB-231, 24 h
COLO 205 = assay: Antiproliferative activity against human COLO205 cells assessed as reduction in cell viability after 24 hrs by MTT assay; assay type: functional, cell-based; settings: COLO 205, 24 h
PC-3 = assay: Antiproliferative activity against human PC3 cells assessed as reduction in cell viability after 24 hrs by MTT assay; assay type: functional, cell-based; settings: PC-3, 24 h
K562 = assay: Antiproliferative activity against human K562 cells assessed as reduction in cell viability after 24 hrs by MTT assay; assay type: functional, cell-based; settings: K562, 24 h
A549 [6] = assay: Antiproliferative activity against human A549 cells assessed as reduction in cell viability after 24 hrs by MTT assay; assay type: functional, cell-based; settings: A549, 24 h

| SMILES | IC50 (WiDr) [µM] | IC50 (HBL-100) [µM] | IC50 (T47D) [µM] | IC50 (HeLa [1]) [µM] | IC50 (SW1573) [µM] | IC50 (A549 [2]) [µM] | GI50 (IMR-32) [µM] | GI50 (HepG2 [3]) [µM] | GI50 (HeLa [4]) [µM] | GI50 (MCF7) [µM] | further results |
| --- | --- | --- | --- | --- | --- | --- | --- | --- | --- | --- | --- |
| COC(=O)c1coc([C@H](Cc2ccccc2)n2cc(CC3CC(O[Si](C)(C)C(C)(C)C)CC(C(C)C)C3)nn2)n1 (some centres not stated) | 3.1 to 88 | 3.1 to 88 | 3.1 to 88 | 3.1 to 88 | 3.1 to 88 | 3.1 to 88 | – | – | – | – | – |
| Cc1ccc(-c2c(OCc3cn(Cc4ccccc4Br)nn3)cnn2-c2ccc(F)cc2)cc1 | – | – | – | – | – | – | 1.8 to 9.7 | 1.8 to 9.7 | 1.8 to 9.7 | 1.8 to 9.7 | – |
| CCC(C)[C@@H](c1nc(C(=O)OC)co1)n1cc(CC2CC(CCc3ccccc3)CC(O[Si](C)(C)C(C)(C)C)C2)nn1 (some centres not stated) | 3.1 to 88 | 3.1 to 88 | 3.1 to 88 | 3.1 to 88 | 3.1 to 88 | 3.1 to 88 | – | – | – | – | – |
| COC(=O)c1coc(Cn2cc(CC3CC(O[Si](C)(C)C(C)(C)C)CC(C(C)C)C3)nn2)n1 (configuration not stated) | 3.1 to 88 | 3.1 to 88 | 3.1 to 88 | 3.1 to 88 | 3.1 to 88 | 3.1 to 88 | – | – | – | – | – |
| Cc1cn([C@H]2C[C@H](n3cc(CCOC(=O)CCC(=O)O[C@@H]4O[C@@H]5O[C@@]6(C)CC[C@H]7[C@H](C)CC[C@@H]([C@H]4C)[C@@]57OO6)nn3)[C@@H](CO)O2)c(=O)[nH]c1=O | – | – | – | – | – | – | – | – | – | – | IC50 (HepG2 [5]): 44.3 µM; IC50 (KB): 16.5 µM |
| O=C(NCc1cn(CC(O)Cn2c3c(c4ccccc4c2=O)C(=O)c2ccccc2-3)nn1)c1ccc(Br)cc1 (configuration not stated) | – | – | – | – | – | – | – | – | – | – | IC50 (HepG2 [5]): 0.76 µM; IC50 (KB): 0.79 µM |
| Cc1ccc(-c2c(OCc3cn(Cc4ccc([N+](=O)[O-])cc4)nn3)cnn2-c2ccc(F)cc2)cc1 | – | – | – | – | – | – | 1.8 to 9.7 | 1.8 to 9.7 | 1.8 to 9.7 | 1.8 to 9.7 | – |
| COc1ccc(Cn2cc(COc3cnn(-c4ccc(C)cc4)c3)nn2)cc1 | – | – | – | – | – | – | 1.8 to 9.7 | 1.8 to 9.7 | 1.8 to 9.7 | 1.8 to 9.7 | – |
| Cc1ccc(-n2cc(OCc3cn(Cc4ccccc4Cl)nn3)cn2)cc1 | – | – | – | – | – | – | 1.8 to 9.7 | 1.8 to 9.7 | 1.8 to 9.7 | 1.8 to 9.7 | – |
| CCCC1CC(Cc2cn([C@H](c3nc(C(=O)OC)co3)C(C)CC)nn2)CC(O[Si](C)(C)C(C)(C)C)C1 (some centres not stated) | 3.1 to 88 | 3.1 to 88 | 3.1 to 88 | 3.1 to 88 | 3.1 to 88 | 3.1 to 88 | – | – | – | – | – |
| CCC(C)[C@@H](c1nc(C(=O)OC)co1)n1cc(CC2CC(O[Si](C)(C)C(C)(C)C)CC(C(C)C)C2)nn1 (some centres not stated) | 3.1 to 88 | 3.1 to 88 | 3.1 to 88 | 3.1 to 88 | 3.1 to 88 | 3.1 to 88 | – | – | – | – | – |
| CCCC1CC(Cc2cn([C@@H](Cc3ccccc3)c3nc(C(=O)OC)co3)nn2)CC(O[Si](C)(C)C(C)(C)C)C1 (some centres not stated) | 3.1 to 88 | 3.1 to 88 | 3.1 to 88 | 3.1 to 88 | 3.1 to 88 | 3.1 to 88 | – | – | – | – | – |
| C[C@H]1[C@H](OC(=O)CCC(=O)O)O[C@@H]2O[C@@]3(C)CC[C@H]4[C@H](C)CC[C@@H]1[C@@]24OO3 [ARTESUNATE] | – | – | – | – | – | – | – | – | – | – | IC50 (HepG2 [5]): 59.4 µM; IC50 (KB): 78.5 µM |
| O=[N+]([O-])c1ccc(Cn2cc(COc3cnn(-c4ccccc4)c3-c3ccccc3)nn2)cc1 | – | – | – | – | – | – | 1.8 to 9.7 | 1.8 to 9.7 | 1.8 to 9.7 | 1.8 to 9.7 | – |
| Fc1ccc(-n2ncc(OCc3cn(Cc4ccccc4)nn3)c2-c2ccc(Cl)cc2)cc1 | – | – | – | – | – | – | 1.8 to 3.8 | 1.8 to 3.8 | 1.8 to 3.8 | 1.8 to 3.8 | – |
| Cc1ccc(-n2cc(OCc3cn(Cc4ccccc4Br)nn3)cn2)cc1 | – | – | – | – | – | – | 1.8 to 9.7 | 1.8 to 9.7 | 1.8 to 9.7 | 1.8 to 9.7 | – |
| CC(=O)c1ccccc1-n1cc(CO[C@H]2O[C@@H]3O[C@@]4(C)O[C@]35[C@@H](CC[C@@H](C)[C@@H]5C[C@H]4O)[C@H]2C)nn1 | – | – | – | – | – | – | – | – | – | – | IC50 (A-431): 4.06 to 89.9 µM; IC50 (MDA-MB-231): 4.06 to 89.9 µM; IC50 (COLO 205): 4.06 to 89.9 µM; IC50 (PC-3): 4.06 to 89.9 µM; IC50 (K562): 4.06 to 89.9 µM; IC50 (A549 [6]): 4.06 to 89.9 µM |
| C[C@H]1[C@@H](OCc2cn(-c3ccc(O)cc3)nn2)O[C@@H]2O[C@@]3(C)CC[C@H]4[C@H](C)CC[C@@H]1[C@@]24OO3 | – | – | – | – | – | – | – | – | – | – | IC50 (A-431): 4.06 to 36.6 µM; IC50 (MDA-MB-231): 4.06 to 36.6 µM; IC50 (COLO 205): 4.06 to 36.6 µM; IC50 (PC-3): 4.06 to 36.6 µM; IC50 (K562): 4.06 to 36.6 µM; IC50 (A549 [6]): 4.06 to 36.6 µM |
